Test results: US20200323215A1, “PESTICIDE FORMULATIONS DERIVED FROM COMBINATIONS OF CARRAGEENANS, SORBIC ACIDS, AND BICARBONATES” (Circadian Crop Sciences LLC, priority 2019, published 2020)

Tests used:
[1] = test system: fusarium; settings: in the literature; cited from earlier work
[2] = test system: powdery mildew; experiment: Sprays against powdery mildew infestations on nursery grown plants; format: in vivo; settings: for eliminating infestations of powdery mildew: single ingredient sprayed at 1 tablespoon per gallon of water, nursery grown roses, gerbera daisies, ornamental peas, trumpet vines, chrysanthemums, grapevines
Excerpt: One hundred grams of potassium bicarbonate is blended with one hundred grams of carrageenan.

[3] = test system: Tomato Russet Mite (Aculops lycopersici); settings: sprays on young tomato plants naturally infested
Excerpt: Fifty grams of potassium sorbate and fifty grams of sodium bicarbonate are mixed with one hundred grams of carrageenan.

Compound: O=C([O-])O.[K+] [potassium bicarbonate]
- efficacy against fusarium, each product separately [1]: shown efficacy

Compound: C/C=C/C=C/C(=O)[O-].[K+] [potassium sorbate]
- eliminating infestations of powdery mildew [2]: ineffective
- effect on Tomato Russet Mites [3]: no effect

Compound: O=C([O-])O.[Na+] [sodium bicarbonate]
- effect on powdery mildew that had overwintered on ornamental pea leaves ([2]; overwintered powdery mildew, ornamental pea leaves): unaffected
- eliminating infestations of powdery mildew [2]: ineffective
